According to DBAASP:
Converted amounts (≈) assume the structure as drawn. One block for each compound: values may come before it.

Tests used:
Assay in all cases: ≥ marks a high value that may be exact or a test limit, other limits are often not marked, values filed in µg/mL are converted to µM
[1] = system: Pseudomonas aeruginosa PAO1
Bacillus cereus C737 = system: Bacillus cereus C737
Escherichia coli UB1005 = system: Escherichia coli UB1005
[2] = system: Pseudomonas aeruginosa ATCC 27853
[3] = system: Salmonella enterica subsp. enterica serovar Enteritidis ATCC 13076
[4] = system: Serratia marcescens ATCC 21202
[5] = system: Klebsiella pneumoniae ATCC 700603
[6] = system: Escherichia coli ATCC 25922
[7] = system: Staphylococcus aureus ATCC 29213
[8] = system: Streptococcus pyogenes ATCC 19615
[9] = system: Bacillus cereus ATCC 11778
[10] = system: Enterococcus faecium mic80
[11] = system: Pseudomonas aeruginosa LES400
[12] = system: Escherichia coli ESBL 63103
[13] = system: Staphylococcus aureus ATCC 25923
[14] = system: Pseudomonas aeruginosa 213
[15] = system: Pseudomonas aeruginosa H103
Candida albicans C627 = system: Candida albicans C627
[16] = system: Staphylococcus aureus C623
[17] = system: Salmonella enterica subsp. enterica serovar Pullorum C79-13
[18] = system: Staphylococcus epidermidis ATCC 12228
Escherichia coli K99 = system: Escherichia coli K99
[19] = system: Bacillus subtilis CMCC 63501
[20] = system: Salmonella enterica subsp. enterica serovar Typhimurium ATCC 14028
Escherichia coli EC183 = system: Escherichia coli EC183
[21] = system: Candida albicans CGMCC 2.2086
Candida albicans CA2761 = system: Candida albicans CA2761
[22] = system: Candida tropicalis CGMCC 2.1975
Escherichia coli K88 = system: Escherichia coli K88
[23] = system: Candida krusei CGMCC 2.1857
[24] = system: Enterococcus faecalis ATCC 29212
[25] = system: Salmonella enterica subsp. enterica serovar Typhimurium C77-31
Escherichia coli 078 = system: Escherichia coli 078
Streptococcus pneumoniae = system: Streptococcus pneumoniae
[26] = system: Pseudomonas aeruginosa ATCC 15442
Enterobacter cloacae = system: Enterobacter cloacae
[27] = system: Acinetobacter baumannii ATCC 15308
Citrobacter sp. = system: Citrobacter sp.
Klebsiella pneumoniae = system: Klebsiella pneumoniae
Staphylococcus aureus = system: Staphylococcus aureus
[28] = system: Vibrio anguillarum ATCC 43305
[29] = system: Bacillus subtilis ATCC 6051
[30] = system: Acinetobacter baumannii ATCC 19606
[31] = system: Pseudomonas aeruginosa CICC 21636
[32] = system: Listeria innocua CICC 10417
[33] = system: Serratia marcescens ATCC 4112
[34] = system: Enterobacter cloacae CICC 21539
[35] = system: Staphylococcus aureus CICC 10306
[36] = system: Salmonella enterica subsp. enterica serovar Paratyphi B CICC 10437
[37] = system: Bacillus subtilis CICC 10034
[38] = system: Escherichia coli CICC 10293
[39] = system: Staphylococcus aureus CICC 10384

SMILES: CC[C@H](C)[C@H](NC(=O)[C@H](CC(=O)O)NC(=O)[C@H](Cc1ccccc1)NC(=O)[C@H](CC(C)C)NC(=O)CN)C(=O)N[C@H](C(=O)N[C@@H](CCCCN)C(=O)N[C@@H](CCCCN)C(=O)N[C@H](C(=O)N[C@H](C(N)=O)C(C)C)C(C)C)C(C)C [GLFDIVKKVV]
MIC [1]: > 115 µM
MIC (Bacillus cereus C737): ≥ 115 µM
MIC (Escherichia coli UB1005): ≥ 115 µM

SMILES: CC[C@H](C)[C@H](N)C(=O)N[C@H](C(=O)N1CCC[C@H]1C(=O)N[C@@H](CC(C)C)C(=O)N1CCC[C@H]1C(=O)N[C@@H](CC(C)C)C(=O)NCC(=O)N[C@@H](Cc1ccc(O)cc1)C(=O)N[C@@H](Cc1ccccc1)C(=O)N[C@@H](C)C(=O)N[C@@H](CCCCN)C(=O)N[C@@H](CCCCN)C(=O)N1CCC[C@H]1C(=O)O)[C@@H](C)CC [IIPLPLGYFAKKP]
MIC [2]: > 68.6 µM
MIC [3]: ≥ 68.6 µM
MIC [4]: ≥ 68.6 µM
MIC [5]: > 68.6 µM
MIC [6]: > 68.6 µM
MIC [7]: > 68.6 µM
MIC [8]: ≥ 68.6 µM
MIC [9]: ≥ 68.6 µM

SMILES: NCCCC[C@H](NC(=O)[C@@H](N)CCCN=C(N)N)C(=O)N[C@@H](CCCN=C(N)N)C(=O)N[C@@H](Cc1c[nH]c2ccccc12)C(=O)N[C@@H](Cc1c[nH]c2ccccc12)C(=O)N[C@@H](Cc1c[nH]c2ccccc12)C(=O)N[C@@H](Cc1c[nH]c2ccccc12)C(=O)N[C@@H](Cc1ccccc1)C(=O)N[C@@H](CCCN=C(N)N)C(=O)O [RKRWWWWFR]
MIC [10]: 5.31 µM (≈ 8 µg/mL)
MIC [11]: 21.2 µM (≈ 32 µg/mL)
MIC [12]: 5.31 µM (≈ 8 µg/mL)
MIC [13]: 2.65 µM (≈ 4 µg/mL)
MIC [14]: 5.31 µM (≈ 8 µg/mL)
MIC [15]: 1.33 µM (≈ 2 µg/mL)
MIC (Candida albicans C627): 5.31 µM (≈ 8 µg/mL)
MIC [16]: 1.33 µM (≈ 2 µg/mL)

SMILES: CC[C@H](C)[C@H](NC(=O)[C@H](Cc1c[nH]c2ccccc12)NC(=O)[C@H](CCCCN)NC(=O)[C@H](CC(C)C)NC(=O)[C@@H](NC(=O)[C@H](CCCCN)NC(=O)CNC(=O)[C@@H](NC(=O)[C@H](CCCCN)NC(=O)[C@H](CCCCN)NC(=O)[C@H](CC(C)C)NC(=O)[C@@H](N)CCCN=C(N)N)[C@@H](C)CC)C(C)C)C(N)=O [RLKKIGKVLKWI]
MIC [17]: 4 µM (≈ 5.92 µg/mL)
MIC [18]: 64 µM (≈ 94.8 µg/mL)
MIC (Escherichia coli K99): 4 µM (≈ 5.92 µg/mL)
MIC [19]: 2 µM (≈ 2.96 µg/mL)
MIC [6]: 8 µM (≈ 11.8 µg/mL)
MIC [13]: 128 µM (≈ 190 µg/mL)
MIC [20]: 16 µM (≈ 23.7 µg/mL)
MIC [7]: 64 µM (≈ 94.8 µg/mL)
MIC (Escherichia coli EC183): 2 µM (≈ 2.96 µg/mL)
MIC [21]: ≥ 128 µM
MIC (Candida albicans CA2761): ≥ 128 µM
MIC [22]: 8 µM (≈ 11.8 µg/mL)
MIC (Escherichia coli K88): 4 µM (≈ 5.92 µg/mL)
MIC [23]: 16 µM (≈ 23.7 µg/mL)
MIC (Escherichia coli UB1005): 16 µM (≈ 23.7 µg/mL)
MIC [24]: 64 µM (≈ 94.8 µg/mL)
MIC [25]: 8 µM (≈ 11.8 µg/mL)
MIC (Escherichia coli 078): 16 µM (≈ 23.7 µg/mL)

SMILES: NC(=O)[C@H](CCCN=C(N)N)NC(=O)[C@H](CCCN=C(N)N)NC(=O)[C@H](Cc1c[nH]c2ccccc12)NC(=O)[C@@H]1CCCN1C(=O)[C@H](Cc1c[nH]c2ccccc12)NC(=O)[C@H](Cc1c[nH]c2ccccc12)NC(=O)[C@@H]1CCCN1C(=O)[C@H](Cc1c[nH]c2ccccc12)NC(=O)[C@H](CCCN=C(N)N)NC(=O)[C@H](Cc1c[nH]c2ccccc12)NC(=O)[C@@H]1CCCN1C(=O)[C@H](CCCN=C(N)N)NC(=O)[C@@H](N)CCCN=C(N)N [RRPWRWPWWPWRR]
MIC (Streptococcus pneumoniae): 15.5 µM (≈ 31.2 µg/mL)
MIC [6]: 15.5 µM (≈ 31.2 µg/mL)
MIC [26]: 15.5 µM (≈ 31.2 µg/mL)
MIC [13]: 15.5 µM (≈ 31.2 µg/mL)
MIC (Enterobacter cloacae): ≥ 124 µM
MIC [27]: ≥ 124 µM
MIC (Citrobacter sp.): ≥ 124 µM
MIC (Klebsiella pneumoniae): > 124 µM
MIC (Staphylococcus aureus): 15.5 µM (≈ 31.2 µg/mL)

Now from value to compound:

MIC [28]: ≥ 32 µM
MIC [2]: 32 µM (≈ 103 µg/mL)
MIC [6]: 4 µM (≈ 12.9 µg/mL)
MIC [13]: 8 µM (≈ 25.8 µg/mL)
MIC [29]: ≥ 32 µM
MIC [30]: 2 µM (≈ 6.45 µg/mL)
SMILES: CC[C@H](C)[C@H](NC(=O)[C@H](CCCN=C(N)N)NC(=O)[C@H](CCCN=C(N)N)NC(=O)[C@@H](NC(=O)[C@@H](NC(=O)[C@H](CCCN=C(N)N)NC(=O)[C@H](CCCN=C(N)N)NC(=O)[C@H](Cc1ccccc1)NC(=O)[C@H](CCCN=C(N)N)NC(=O)[C@H](CCCN=C(N)N)NC(=O)[C@H](CCCN=C(N)N)NC(=O)[C@H](CCCN=C(N)N)NC(=O)[C@@H](N)CCCN=C(N)N)C(C)C)[C@@H](C)CC)C(=O)N[C@@H](CCCN=C(N)N)C(=O)N[C@@H](CC(C)C)C(=O)N1CCC[C@H]1C(=O)N[C@@H](CCCCN)C(=O)N[C@@H](Cc1ccc(O)cc1)C(=O)N[C@@H](CC(C)C)C(=O)N[C@H](C(=O)N[C@H](C(=O)N[C@@H](CC(N)=O)C(=O)N[C@H](C(=O)N[C@@H](CCC(=O)O)C(=O)O)[C@@H](C)O)[C@@H](C)CC)[C@@H](C)O [RRRRRFRRVIRRIRLPKYLTINTE]

MIC [31]: ≥ 34.1 µM
MIC [32]: 8.54 µM (≈ 8 µg/mL)
MIC [33]: ≥ 34.1 µM
MIC [34]: ≥ 34.1 µM
MIC [35]: 8.54 µM (≈ 8 µg/mL)
MIC [36]: ≥ 34.1 µM
MIC [37]: ≥ 34.1 µM
MIC [38]: 17.1 µM (≈ 16 µg/mL)
MIC [39]: 8.54 µM (≈ 8 µg/mL)
SMILES: CSCC[C@H](NC(=O)[C@@H](NC(=O)[C@@H](N)CCCN=C(N)N)C(C)C)C(=O)N[C@@H](Cc1ccccc1)C(=O)N[C@@H](CCCCN)C(=O)N[C@@H](Cc1c[nH]c2ccccc12)C(=O)N[C@@H](C)C(=O)O [RVMFKWA]
